Measured values from the supplement of paper PMC10307832.

Columns and labels:
Experiment in all cases: relative viability (nuclei count vs DMSO), 5 days (fraction); higher = more cells survive
Shikonin + Phenformin = compound: CC(C)=CC[C@@H](O)C1=CC(=O)c2c(O)ccc(O)c2C1=O [Shikonin] + N=C(N)NC(=N)NCCc1ccccc1 [Phenformin] (partner 250 µM)
In short: (§1)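 Relative viability was taken as the ratio of nuclei in treated wells to nuclei in vehicle wells. Lung cancer cell lines in 1536-well plates received compounds by pin tool one day after seeding, either one drug alone or a fixed anchor-drug dose plus five library-drug doses (not always all listed) in √10 steps. Nuclei were counted on 4× images after 5 days of treatment, and values are medians of duplicate plates.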

[1] = compound: CC(C)N(CCCNC(=O)Nc1ccc(C(C)(C)C)cc1)C[C@H]1O[C@@H](n2ccc3c(N)ncnc32)[C@H](O)[C@@H]1O + CC(=O)c1c(C)c2cnc(Nc3ccc(N4CCNCC4)cn3)nc2n(C2CCCC2)c1=O [Palbociclib] (partner 0.5 µM)
In short: as §1

[2] = compound: CC(C)N(CCCNC(=O)Nc1ccc(C(C)(C)C)cc1)C[C@H]1O[C@@H](n2ccc3c(N)ncnc32)[C@H](O)[C@@H]1O + CCNC(=O)c1noc(-c2cc(C(C)C)c(O)cc2O)c1-c1ccc(CN2CCOCC2)cc1 [Luminespib] (partner 0.01 µM)
In short: as §1

[3] = compound: CC(C)N(CCCNC(=O)Nc1ccc(C(C)(C)C)cc1)C[C@H]1O[C@@H](n2ccc3c(N)ncnc32)[C@H](O)[C@@H]1O + COc1cccc2cc(-c3nc([C@H]4CC[C@H](C(=O)O)CC4)n4ncnc(N)c34)[nH]c12 [OSI-027] (partner 0.5 µM)
In short: as §1

Work on UMC-11 yielded a relative viability (Shikonin + Phenformin; first compound 0.01 µM) of 0.337, a relative viability (Shikonin + Phenformin; first compound 0.1 µM) of 0.329 and a relative viability (Shikonin + Phenformin; first compound 0.3162 µM) of 0.348. The relative viability (Shikonin + Phenformin; first compound 1 µM) was 0.331, the relative viability ([1]; first compound 0.08 µM) was 0.294 and the relative viability ([1]; first compound 0.253 µM) was 0.316. It also gave a relative viability ([1]; first compound 0.8 µM) of 0.304, a relative viability ([1]; first compound 2.53 µM) of 0.323 and a relative viability ([1]; first compound 8 µM) of 0.28. The relative viability ([2]; first compound 0.08 µM) was 1.01, the relative viability ([2]; first compound 0.253 µM) was 0.992 and the relative viability ([2]; first compound 0.8 µM) was 0.915. For the same cell line, the relative viability ([2]; first compound 2.53 µM) was 1, the relative viability ([2]; first compound 8 µM) was 0.977 and the relative viability ([3]; first compound 0.08 µM) was 0.458. It also gave a relative viability ([3]; first compound 0.253 µM) of 0.465, a relative viability ([3]; first compound 0.8 µM) of 0.453 and a relative viability ([3]; first compound 2.53 µM) of 0.522. It also gave a relative viability ([3]; first compound 8 µM) of 0.532.
